Test results: ChEMBL document CHEMBL3797107, “Discovery of 5-(methylthio)pyrimidine derivatives as L858R/T790M mutant selective epidermal growth factor receptor (EGFR) inhibitors” (Bioorg Med Chem, 2016)
Calls of active or inactive are those of the source. The rule behind the calls is not given here.

How the values were obtained:
[1] = target: T1, Epidermal growth factor receptor (Homo sapiens, UniProt P00533); assay: Inhibition of wild-type EGFR phosphorylation in EGF-stimulated human A431 cells preincubated for 2 hrs followed by EGF addition for 10 mins by western blot analysis; assay type: cell-based; settings: A-431
T1 sequence (P00533 whole entry): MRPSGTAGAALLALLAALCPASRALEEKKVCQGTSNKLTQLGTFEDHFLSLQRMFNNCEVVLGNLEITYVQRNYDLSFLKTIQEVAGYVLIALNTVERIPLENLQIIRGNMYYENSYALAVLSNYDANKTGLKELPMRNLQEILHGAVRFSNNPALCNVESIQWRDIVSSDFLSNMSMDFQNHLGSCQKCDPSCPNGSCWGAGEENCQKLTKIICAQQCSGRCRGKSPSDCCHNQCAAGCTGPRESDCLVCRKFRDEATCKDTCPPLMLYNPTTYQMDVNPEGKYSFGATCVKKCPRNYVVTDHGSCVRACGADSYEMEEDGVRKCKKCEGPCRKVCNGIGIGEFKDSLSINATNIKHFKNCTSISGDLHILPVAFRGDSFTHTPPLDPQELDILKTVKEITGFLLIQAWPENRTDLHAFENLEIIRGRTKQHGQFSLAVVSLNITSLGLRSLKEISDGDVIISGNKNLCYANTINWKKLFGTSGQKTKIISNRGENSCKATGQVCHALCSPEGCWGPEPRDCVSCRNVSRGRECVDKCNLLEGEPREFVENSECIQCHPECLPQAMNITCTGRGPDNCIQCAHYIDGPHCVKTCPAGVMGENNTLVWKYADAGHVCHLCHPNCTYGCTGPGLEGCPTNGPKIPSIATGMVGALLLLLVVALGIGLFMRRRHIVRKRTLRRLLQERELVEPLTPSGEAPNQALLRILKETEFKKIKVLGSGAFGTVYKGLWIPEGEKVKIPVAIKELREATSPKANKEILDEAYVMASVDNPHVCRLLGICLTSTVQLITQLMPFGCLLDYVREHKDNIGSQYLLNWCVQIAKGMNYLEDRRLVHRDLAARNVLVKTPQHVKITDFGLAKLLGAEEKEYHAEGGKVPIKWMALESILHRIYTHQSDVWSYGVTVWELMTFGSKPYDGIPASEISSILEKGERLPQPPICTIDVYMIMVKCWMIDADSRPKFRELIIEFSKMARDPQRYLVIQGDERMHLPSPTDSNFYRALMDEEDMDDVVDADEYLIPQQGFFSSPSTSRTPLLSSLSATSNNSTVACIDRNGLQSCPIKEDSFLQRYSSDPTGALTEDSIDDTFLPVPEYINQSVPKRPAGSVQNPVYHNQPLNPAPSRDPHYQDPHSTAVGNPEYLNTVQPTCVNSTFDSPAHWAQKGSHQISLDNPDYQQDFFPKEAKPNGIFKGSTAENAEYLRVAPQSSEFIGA

[2] = target: T1, Epidermal growth factor receptor; assay: Inhibition of wild-type EGFR in EGF-stimulated human A431 cells assessed as decrease in phosphorylated Erk level preincubated for 2 hrs followed by EGF addition for 10 mins by western blot analysis; assay type: cell-based; settings: A-431
[3] = test system: Epidermal growth factor receptor (Homo sapiens), P00533 [L858R,T790M]; assay: Inhibition of EGFR T790M/L858R mutant in EGF-stimulated human NCI-H1975 cells assessed as decrease in phosphorylated Erk level preincubated for 2 hrs followed by EGF addition for 10 mins by western blot analysis; assay type: cell-based
Epidermal growth factor receptor (Homo sapiens), P00533 [L858R,T790M], sequence (P00533 whole entry T790M/L858R, looked up): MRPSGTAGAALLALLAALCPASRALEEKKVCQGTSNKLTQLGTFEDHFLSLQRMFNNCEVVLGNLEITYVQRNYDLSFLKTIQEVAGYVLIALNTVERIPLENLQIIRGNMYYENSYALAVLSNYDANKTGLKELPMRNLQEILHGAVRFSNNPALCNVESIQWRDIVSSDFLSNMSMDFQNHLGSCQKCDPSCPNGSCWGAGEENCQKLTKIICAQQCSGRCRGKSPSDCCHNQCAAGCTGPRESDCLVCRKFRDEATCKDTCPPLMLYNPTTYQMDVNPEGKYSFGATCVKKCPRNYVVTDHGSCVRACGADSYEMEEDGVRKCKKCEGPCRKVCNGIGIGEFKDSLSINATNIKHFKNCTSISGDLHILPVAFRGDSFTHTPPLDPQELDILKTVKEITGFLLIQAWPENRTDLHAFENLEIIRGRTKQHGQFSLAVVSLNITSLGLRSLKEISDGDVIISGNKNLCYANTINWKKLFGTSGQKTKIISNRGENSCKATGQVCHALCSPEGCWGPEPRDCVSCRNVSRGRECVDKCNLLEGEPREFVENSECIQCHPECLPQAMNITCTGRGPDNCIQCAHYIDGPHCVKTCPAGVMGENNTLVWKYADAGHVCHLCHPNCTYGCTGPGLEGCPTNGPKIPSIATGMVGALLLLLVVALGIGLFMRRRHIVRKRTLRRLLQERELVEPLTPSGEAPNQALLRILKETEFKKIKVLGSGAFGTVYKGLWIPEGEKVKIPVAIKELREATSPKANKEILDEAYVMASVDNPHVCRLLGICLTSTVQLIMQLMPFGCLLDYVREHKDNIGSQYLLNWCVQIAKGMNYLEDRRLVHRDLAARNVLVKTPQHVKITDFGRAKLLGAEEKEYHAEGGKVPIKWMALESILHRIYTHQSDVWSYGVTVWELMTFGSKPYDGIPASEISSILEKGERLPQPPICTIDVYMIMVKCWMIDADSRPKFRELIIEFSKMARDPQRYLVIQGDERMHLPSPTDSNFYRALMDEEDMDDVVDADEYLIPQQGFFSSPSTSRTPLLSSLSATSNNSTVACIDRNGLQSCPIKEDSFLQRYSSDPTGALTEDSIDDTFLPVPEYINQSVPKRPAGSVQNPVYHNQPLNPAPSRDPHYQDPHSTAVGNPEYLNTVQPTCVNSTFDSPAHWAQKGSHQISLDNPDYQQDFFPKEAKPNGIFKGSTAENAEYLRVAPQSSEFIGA

NCI-H1975 [4] = assay: Antiproliferative activity against human NCI-H1975 cells expressing EGFR T790M/L858R mutant after 72 hrs by SRB assay; assay type: functional, cell-based; settings: NCI-H1975, 72 h
[5] = target: T1, Epidermal growth factor receptor; assay: Inhibition of wild-type EGFR (unknown origin) expressed in baculovirus expression system after 1 hr by ELISA
[6] = test system: Epidermal growth factor receptor (Homo sapiens), P00533 [L858R,T790M]; assay: Inhibition of EGFR T790M/L858R mutant in EGF-stimulated human NCI-H1975 cells assessed as decrease in phosphorylated Akt level preincubated for 2 hrs followed by EGF addition for 10 mins by western blot analysis; assay type: cell-based
[7] = test system: Epidermal growth factor receptor (Homo sapiens), P00533 [L858R,T790M]; assay: Inhibition of EGFR T790M/L858R mutant phosphorylation in EGF-stimulated human NCI-H1975 cells preincubated for 2 hrs followed by EGF addition for 10 mins by western blot analysis; assay type: cell-based
A-431 = assay: Antiproliferative activity against human A431 cells overexpressing wild-type EGFR after 72 hrs by SRB assay; assay type: functional, cell-based; settings: A-431, 72 h
[8] = target: T1, Epidermal growth factor receptor; assay: Inhibition of wild-type EGFR in EGF-stimulated human A431 cells assessed as decrease in phosphorylated Akt level preincubated for 2 hrs followed by EGF addition for 10 mins by western blot analysis; assay type: cell-based; settings: A-431
[9] = target: Epidermal growth factor receptor (Homo sapiens, UniProt P00533, L858R/T790M); assay: Inhibition of EGFR T790M/L858R mutant (unknown origin) expressed in baculovirus expression system after 1 hr by ELISA
Epidermal growth factor receptor (Homo sapiens, UniProt P00533, L858R/T790M), sequence (P00533 25-1210 T790M/L858R limits assumed): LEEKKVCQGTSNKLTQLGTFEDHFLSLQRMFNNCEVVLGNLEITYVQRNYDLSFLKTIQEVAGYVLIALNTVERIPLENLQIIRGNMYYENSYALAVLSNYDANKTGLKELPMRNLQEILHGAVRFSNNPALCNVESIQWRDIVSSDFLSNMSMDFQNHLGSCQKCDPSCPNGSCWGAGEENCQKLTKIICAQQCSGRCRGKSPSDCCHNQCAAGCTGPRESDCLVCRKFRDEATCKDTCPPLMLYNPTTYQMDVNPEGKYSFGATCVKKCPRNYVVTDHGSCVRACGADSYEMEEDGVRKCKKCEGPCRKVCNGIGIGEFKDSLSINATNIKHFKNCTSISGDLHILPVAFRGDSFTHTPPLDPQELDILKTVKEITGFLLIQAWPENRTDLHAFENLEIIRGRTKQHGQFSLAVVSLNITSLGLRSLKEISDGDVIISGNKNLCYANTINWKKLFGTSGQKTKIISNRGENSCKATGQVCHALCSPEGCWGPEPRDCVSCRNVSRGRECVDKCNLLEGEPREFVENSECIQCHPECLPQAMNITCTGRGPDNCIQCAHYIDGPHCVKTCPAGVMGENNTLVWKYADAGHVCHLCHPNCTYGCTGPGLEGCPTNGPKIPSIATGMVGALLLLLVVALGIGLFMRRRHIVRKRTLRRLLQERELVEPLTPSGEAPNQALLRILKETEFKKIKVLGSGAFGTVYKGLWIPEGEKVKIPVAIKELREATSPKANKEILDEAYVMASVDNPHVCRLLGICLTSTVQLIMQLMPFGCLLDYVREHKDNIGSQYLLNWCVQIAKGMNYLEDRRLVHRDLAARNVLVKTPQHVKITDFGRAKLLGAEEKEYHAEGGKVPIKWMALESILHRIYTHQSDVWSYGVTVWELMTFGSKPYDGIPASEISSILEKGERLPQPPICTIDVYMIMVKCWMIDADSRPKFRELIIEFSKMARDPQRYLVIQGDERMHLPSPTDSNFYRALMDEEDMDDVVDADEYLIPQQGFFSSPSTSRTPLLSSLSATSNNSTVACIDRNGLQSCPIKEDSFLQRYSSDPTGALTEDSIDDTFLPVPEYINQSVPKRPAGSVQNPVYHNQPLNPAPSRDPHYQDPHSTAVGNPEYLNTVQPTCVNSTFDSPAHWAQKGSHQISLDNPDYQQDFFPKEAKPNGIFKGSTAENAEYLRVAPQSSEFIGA

[10] = test system: Epidermal growth factor receptor (Homo sapiens), P00533 [L858R,T790M]; assay: Inhibition of EGFR T790M/L858R mutant in EGF-stimulated human NCI-H1975 cells assessed as decrease in phosphorylated Akt level at 0.001 to 1 uM preincubated for 2 hrs followed by EGF addition for 10 mins by western blot analysis; assay type: cell-based
[11] = test system: Epidermal growth factor receptor (Homo sapiens), P00533 [L858R,T790M]; assay: Inhibition of EGFR T790M/L858R mutant in EGF-stimulated human NCI-H1975 cells assessed as decrease in phosphorylated Erk level at 0.001 to 1 uM preincubated for 2 hrs followed by EGF addition for 10 mins by western blot analysis; assay type: cell-based
NCI-H1975 [12] = assay: Effect on total Akt level in human NCI-H1975 cells at 0.001 to 1 uM preincubated for 2 hrs followed by EGF addition for 10 mins by western blot analysis; assay type: ADME, cell-based; settings: nci-h1975, 10 min
NCI-H1975 [13] = assay: Effect on total tubulin level in human NCI-H1975 cells at 0.001 to 1 uM preincubated for 2 hrs followed by EGF addition for 10 mins by western blot analysis; assay type: ADME, cell-based; settings: nci-h1975, 10 min
NCI-H1975 [14] = assay: Effect on total EGFR level in human NCI-H1975 cells at 0.001 to 1 uM preincubated for 2 hrs followed by EGF addition for 10 mins by western blot analysis; assay type: ADME, cell-based; settings: nci-h1975, 10 min
NCI-H1975 [15] = assay: Effect on total Erk level in human NCI-H1975 cells at 0.001 to 1 uM preincubated for 2 hrs followed by EGF addition for 10 mins by western blot analysis; assay type: ADME, cell-based; settings: nci-h1975, 10 min

Row | Structure (SMILES) | inhibition [1] | inhibition [2] | inhibition [3] | IC50 (NCI-H1975 [4]) [nM] | IC50 [5] [nM] | inhibition [6] | inhibition [7] | IC50 (A-431) [nM] | inhibition [8] | IC50 [9] [nM] | inhibition [10] | inhibition [11] | Activity (NCI-H1975 [12]) | Activity (NCI-H1975 [13]) | Activity (NCI-H1975 [14]) | Activity (NCI-H1975 [15])
1 | C=CC(=O)Nc1cccc(Oc2nc(Nc3ccc(N4CCN(C(C)=O)CC4)cc3OC(F)F)ncc2SC)c1 | Dose-dependent effect | Dose-dependent effect | Dose-dependent effect | 20 | 38.8 | Dose-dependent effect | Dose-dependent effect | 4650 | Dose-dependent effect | 2.8 |  |  |  |  |  | 
2 | C=CC(=O)Nc1cccc(Oc2nc(Nc3ccc(N4CCCN(C(C)=O)CC4)cc3OC)ncc2SC)c1 |  |  |  | 573 | 389 |  |  | 4300 |  | 1.8 |  |  |  |  |  | 
3 | C=CC(=O)Nc1cccc(Oc2nc(Nc3ccc(N4CCN(C)CC4)cc3OC)ncc2Cl)c1 |  |  |  | 95 |  |  |  |  |  |  |  |  |  |  |  | 
4 | C=CC(=O)Nc1cccc(Oc2nc(Nc3ccc(N4CCN(C(=O)C(F)(F)F)CC4)cc3OC)ncc2SC)c1 |  |  |  | 404 | 248 |  |  | 1190 |  | 4.4 |  |  |  |  |  | 
5 | C=CC(=O)Nc1cccc(Oc2nc(Nc3ccc(N4CCN(C(=O)CC)CC4)cc3OC)ncc2SC)c1 | Dose-dependent effect | Dose-dependent effect | Dose-dependent effect | 148 | 154 | Dose-dependent effect | Dose-dependent effect | 4420 | Dose-dependent effect | 5.8 |  |  |  |  |  | 
6 | C=CC(=O)Nc1cccc(Oc2nc(Nc3ccc(N4CCN(C(=O)C(C)C)CC4)cc3OC)ncc2SC)c1 |  |  |  | 200 | 174 |  |  | 2010 |  | 3.6 |  |  |  |  |  | 
7 | C=CC(=O)Nc1cccc(Oc2nc(Nc3ccc(N4CCN(S(C)(=O)=O)CC4)cc3OC)ncc2SC)c1 |  |  |  | 1690 | 730 |  |  | > 10000 |  | 7.3 |  |  |  |  |  | 
8 | C=CC(=O)Nc1cccc(Oc2nc(Nc3ccc(N4CCN(C(=O)CC)CC4)cc3OC(F)F)ncc2SC)c1 | Dose-dependent effect | Dose-dependent effect | Dose-dependent effect | 88 | 46.4 | Dose-dependent effect | Dose-dependent effect | 4920 | Dose-dependent effect | 3.7 |  |  |  |  |  | 
9 | C=CC(=O)Nc1cccc(Oc2nc(Nc3ccc(N4CCN(C(=O)C(C)(C)C)CC4)cc3OC)ncc2SC)c1 |  |  |  | 577 | 410 |  |  | 9220 |  | 9.6 |  |  |  |  |  | 
11 | C=CC(=O)Nc1cccc(Oc2nc(Nc3ccc(N4CCN(C(C)=O)CC4)cc3OC)ncc2SC)c1 |  |  |  | 194 | 87.5 |  |  | 4580 |  | 0.7 |  |  |  |  |  | 
12 | C=CC(=O)Nc1cccc(Oc2nc(Nc3ccc(N4CCN(C(C)=O)CC4)cc3OC)ncc2C(F)(F)F)c1 |  |  |  | 88 |  |  | Dose-dependent effect | 1880 |  |  | Active | Active |  |  |  | 
13 | C=CC(=O)Nc1cccc(Oc2nc(Nc3ccc(N4CCN(C)CC4)cc3OC)ncc2SC)c1 |  |  |  | 167 | 272 |  | Dose-dependent effect | 3880 |  | 0.4 | Active | Active | Non-toxic | Non-toxic | Non-toxic | Non-toxic
